Test results taken from patent US20210032651A1, “IMPROVEMENT OF HERBICIDE TOLERANCE TO HPPD INHIBITORS BY DOWN-REGULATION OF PUTATIVE 4-HYDROXYPHENYLPYRUVATE REDUCTASES IN SOYBEAN” (BASF SE, priority 2017, published 2021).

System: soybean T1 plants transformed with pMLS0519 or pCPE825
Experiment: Field trial of the T1 generation, herbicide tolerance
Assay type: in vivo
Settings: Puerto Rico, pMLS0519 and pCPE825 the most effective of the constructs tested

CS(=O)(=O)c1cc(C(F)(F)F)ccc1C(=O)c1cnoc1C1CC1 [isoxaflutole, (5-cyclopropyl-4-isoxazolyl)[2-(methylsulfonyl)-4-(trifluoromethyl)phenyl]methanone] was tested, and the “tolerance in field trial” value was “good tolerance”.
